Results on 23 molecules are retold here after patent US9540343B2 (Gilead Sciences, Inc., priority 2011, dated 2017).

Some results are limits rather than exact numbers.

Data set [1] relates to HIV-IIIb. As to the kind of experiment: Test A: Antiviral assay in MT4 cells. Conditions: MT-4 cells infected with HIV-IIIb, 5 days, CellTiter-Glo; for inhibition at 2 µM: Human immunodeficiency virus 1, IIIB, MT4, 120 h, read-out: % inhibition at 2 μM, percent inhibition of virus-induced cell killing, from dose response curve at 2 uM drug; for % inhibition at 2 μM: percent inhibition of virus-induced cell killing, from dose response curve at 2 uM drug. The data set is classed as cell-based, HIV-1.

Data set [2] can be described thus: in vitro. Conditions: human, uninfected MT-4 cells, CC50 (nM), same protocol as Test A, CellTiter-Glo. The gist of the method: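 Cytoprotection read-out: CellTiter-Glo chemiluminescence after 5 days at 37 °C of HIV-IIIb-infected MT-4 cells (m.o.i. 0.003) with compound in 10-point 3-fold dilutions, quadruplicate, 10% FBS. Cytotoxicity (CC50) measured identically without virus.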
In general terms: ATP-based viability assays read luminescence as a measure of living cells.

With `NC(=O)c1cc(-c2cccnc2[C@H](Cc2cc(F)cc(F)c2)NC(=O)Cn2nc(C(F)F)c3c2CCCC3)ccc1F` [Example 307, (S)-5-(2-(1-(2-(3-(difluoromethyl)-4,5,6,7-tetrahydro-1H-indazol-1-yl)acetamido)-2-(3,5-difluorophenyl)ethyl)pyridin-3-yl)-2-fluorobenzamide], in data set [1], the inhibition at 2 µM turned out to be 99%. In data set [2], this molecule gave a CC50 at 5 days of 26700 nM.

`NC(=O)c1cc(-c2cccnc2[C@H](Cc2cc(F)cc(F)c2)NC(=O)Cn2nc(C(F)(F)F)c3c2C2CC2CC3)ccc1F` (stereo partly drawn) [Example 342C, 5-(2-((1S)-2-(3,5-difluorophenyl)-1-(2-(3-(trifluoromethyl)-5,5a,6,6a-tetrahydrocyclopropa[g]indazol-1(4H)-yl)acetamido)ethyl)pyridin-3-yl)-2-fluorobenzamide]: the inhibition at 2 µM in data set [1] is 119%. Also, the midpoint of cytotoxicity in data set [2], the CC50 at 5 days, lay at 13700 nM.

Take `NC(=O)c1cc(-c2cccnc2[C@H](Cc2cccc(F)c2)NC(=O)CC2C(=O)Nc3ccc(F)cc32)ccc1F` (stereo partly drawn) [Example 253, 2-fluoro-5-(2-((1S)-1-(2-(5-fluoro-2-oxoindolin-3-yl)acetamido)-2-(3-fluorophenyl)ethyl)pyridin-3-yl)benzamide]: in data set [1], the inhibition at 2 µM worked out at 27%. The molecule further gave a CC50 at 5 days in data set [2] greater than 53200 nM.

In the case of `NC(=O)c1cccc(-c2cccnc2[C@H](Cc2cc(F)cc(F)c2)NC(=O)Cn2c(C(F)(F)F)nc3ccc(OC(F)(F)F)cc32)c1` [Example 315, (S)-3-(2-(2-(3,5-difluorophenyl)-1-(2-(6-(trifluoromethoxy)-2-(trifluoromethyl)-1H-benzo[d]imidazol-1-yl)acetamido)ethyl)pyridin-3-yl)benzamide], the inhibition at 2 µM in data set [1] was determined as 0%. In data set [2], this molecule registered a CC50 at 5 days of 47200 nM.

Take `O=C(Cn1nc(C(F)(F)F)c2c1CCCC2)N[C@H](Cc1cc(F)cc(F)c1)c1ncncc1-c1ccc(Cl)cc1` [Example 383, (R)—N-(1-(5-(4-chlorophenyl)pyrimidin-4-yl)-2-(3,5-difluorophenyl)ethyl)-2-(3-(trifluoromethyl)-4,5,6,7-tetrahydro-1H-indazol-1-yl)acetamide]: the inhibition at 2 µM in data set [1] turned out to be 32%. Further, in data set [2], the half-maximal cytotoxic concentration (CC50) at 5 days came to 15500 nM.

For `CC(C)(C)OC(=O)Nc1ccc2[nH]cc(CC(=O)N[C@@H](Cc3cc(F)cc(F)c3)c3ncccc3-c3cccc(C(N)=O)c3)c2c1` [Example 496B, (S)-tert-butyl 3-(2-(1-(3-(3-carbamoylphenyl)pyridin-2-yl)-2-(3,5-difluorophenyl)ethylamino)-2-oxoethyl)-1H-indol-5-ylcarbamate], the inhibition at 2 µM in data set [1] was 17%. This molecule registered a CC50 at 5 days in data set [2] of 18400 nM.

As for `CC(C)(C)OC(=O)N1Cc2c(C(F)(F)F)nn(CC(=O)N[C@@H](Cc3cc(F)cc(F)c3)c3ncccc3-c3ccc(F)c(C(N)=O)c3)c2C1` [Example 227, (S)-tert-butyl 1-(2-((1-(3-(3-carbamoyl-4-fluorophenyl)pyridin-2-yl)-2-(3,5-difluorophenyl)ethyl)amino)-2-oxoethyl)-3-(trifluoromethyl)-4,6-dihydropyrrolo[3,4-c]pyrazole-5(1H)-carboxylate], the inhibition at 2 µM in data set [1] turned out to be 1%. In addition, in data set [2], it took 14300 nM to reach half-maximal cytotoxicity (CC50 at 5 days).

For the molecule `NC(=O)c1cccc(-c2cccnc2[C@H](Cc2cc(F)cc(F)c2)NC(=O)Cn2cnc3ccccc32)c1` [Example 418, (S)-3-(2-(1-(2-(1H-benzo[d]imidazol-1-yl)acetamido)-2-(3,5-difluorophenyl)ethyl)pyridin-3-yl)benzamide], in data set [1], the inhibition at 2 µM was determined as 19%. Further, the half-maximal cytotoxic concentration (CC50) at 5 days in data set [2] was greater than 53200 nM.

For the molecule `NC(=O)c1cc(-c2cccnc2[C@H](Cc2cc(F)cc(F)c2)NC(=O)Cc2c[nH]c3ccc(F)cc23)ccc1Cl` [Example 412, (S)-2-chloro-5-(2-(2-(3,5-difluorophenyl)-1-(2-(5-fluoro-1H-indol-3-yl)acetamido)ethyl)pyridin-3-yl)benzamide], the inhibition at 2 µM in data set [1] amounted to 80%. In data set [2], this molecule registered a CC50 at 5 days of 11100 nM.

With `Cc1ccccc1-c1cccnc1[C@H](Cc1cc(F)cc(F)c1)NC(=O)Cc1c[nH]c2ccc(F)cc12` [Example 109, (S)—N-(2-(3,5-difluorophenyl)-1-(3-o-tolylpyridin-2-yl)ethyl)-2-(5-fluoro-1H-indol-3-yl)acetamide], the inhibition at 2 µM in data set [1] was 50%. Besides, half-maximal cytotoxicity in data set [2] (CC50 at 5 days) was put at 9080 nM.

As to `CCC(C(=O)N[C@@H](Cc1cc(F)cc(F)c1)c1ncccc1-c1ccc(F)c(C(N)=O)c1)n1cnc2cc(C)c(C)cc21` (stereo partly drawn) [Example 587C, 5-(2-((1S)-2-(3,5-difluorophenyl)-1-(2-(5,6-dimethyl-1H-benzo[d]imidazol-1-yl)butanamido)ethyl)pyridin-3-yl)-2-fluorobenzamide], in data set [1], the inhibition at 2 µM is 93%. The cytotoxic concentration (CC50) at 5 days in data set [2] was found to be 23000 nM.

As to `Cc1cc(=O)n(CC(=O)N[C@@H](Cc2cc(F)cc(F)c2)c2ncccc2-c2cccc(S(N)(=O)=O)c2)c2ccccc12` [Example 345, (S)—N-(2-(3,5-difluorophenyl)-1-(3-(3-sulfamoylphenyl)pyridin-2-yl)ethyl)-2-(4-methyl-2-oxoquinolin-1(2H)-yl)acetamide], the inhibition at 2 µM in data set [1] is 21%. Further, the CC50 at 5 days in data set [2] was 12400 nM.

As to `COC1CN(C(=O)c2cc(C(C)C)n(CC(=O)N[C@@H](Cc3cc(F)cc(F)c3)c3ncccc3-c3ccc(F)c(C(N)=O)c3)n2)C1` [Example 576B, (S)-5-(2-(2-(3,5-difluorophenyl)-1-(2-(5-isopropyl-3-(3-methoxyazetidine-1-carbonyl)-1H-pyrazol-1-yl)acetamido)ethyl)pyridin-3-yl)-2-fluorobenzamide], the inhibition at 2 µM in data set [1] was determined as 2%. Further, the 50% cytotoxic concentration (CC50) at 5 days in data set [2] was greater than 53200 nM.

`NC(=O)c1cc(-c2cccnc2[C@H](Cc2cc(F)cc(F)c2)NC(=O)Cn2cc(C(F)(F)F)cn2)ccc1F` [Example 570, (S)-5-(2-(2-(3,5-difluorophenyl)-1-(2-(4-(trifluoromethyl)-1H-pyrazol-1-yl)acetamido)ethyl)pyridin-3-yl)-2-fluorobenzamide]: the inhibition at 2 µM in data set [1] was 5%. In data set [2], the CC50 at 5 days was greater than 53200 nM.

Take `COc1ccc(CC(=O)N[C@@H](Cc2cc(F)cc(F)c2)c2ncccc2-c2cccc(C(N)=O)c2)c(OC)c1` [Example 499, (S)-3-(2-(2-(3,5-difluorophenyl)-1-(2-(2,4-dimethoxyphenyl)acetamido)ethyl)pyridin-3-yl)benzamide]: in data set [1], the inhibition at 2 µM is 22%. The cytotoxic concentration (CC50) at 5 days in data set [2] was greater than 53000 nM.

As for `NC(=O)c1cc(-c2cccnc2[C@H](Cc2cc(F)cc(F)c2)NC(=O)Cn2cc(Br)c(C(F)(F)F)n2)ccc1F` [Example 463, (S)-5-(2-(1-(2-(4-bromo-3-(trifluoromethyl)-1H-pyrazol-1-yl)acetamido)-2-(3,5-difluorophenyl)ethyl)pyridin-3-yl)-2-fluorobenzamide], the inhibition at 2 µM in data set [1] is 11%. Moreover, in data set [2], the CC50 at 5 days came to 14700 nM.

In the case of `O=C(Cn1nc(C(F)F)c2c1C(F)(F)CCC2(F)F)N[C@@H](Cc1cc(F)cc(F)c1)c1ncncc1-c1ccc(Cl)cc1` [Example 524D, (S)—N-(1-(5-(4-chlorophenyl)pyrimidin-4-yl)-2-(3,5-difluorophenyl)ethyl)-2-(3-(difluoromethyl)-4,4,7,7-tetrafluoro-4,5,6,7-tetrahydro-1H-indazol-1-yl)acetamide], in data set [1], the inhibition at 2 µM turned out to be 78%. For the same molecule, in data set [2], the cytotoxic concentration (CC50) at 5 days was 8530 nM.

For `O=C(Cn1nc(C(F)F)c2c1C1CC1CC2)NC(Cc1cc(F)cc(F)c1)c1ncncc1-c1cnc2[nH]ccc2c1` (single isomer, unassigned) [Example 329], in data set [1], the “% inhibition at 2 μM” value is listed as 99%. In addition, the CC50 at 5 days in data set [2] is 14700 nM.

For `O=C(Cn1nc(C(F)(F)F)c2c1COCC2)N[C@@H](Cc1cc(F)cc(F)c1)c1ncccc1-c1ccc(Cl)cc1` [Example 121, (S)—N-(1-(3-(4-chlorophenyl)pyridin-2-yl)-2-(3,5-difluorophenyl)ethyl)-2-(3-(trifluoromethyl)-4,5-dihydropyrano[3,4-c]pyrazol-1(7H)-yl)acetamide], the inhibition at 2 µM in data set [1] is 68%. This molecule also had a CC50 at 5 days in data set [2] of 9100 nM.

In the case of `NC(=O)c1cc(-c2cccnc2[C@H](Cc2cc(F)cc(F)c2)NC(=O)C(c2ccccc2)C2CCCC2)ccc1F` (single isomer, unassigned) [Example 515], the “% inhibition at 2 μM” value in data set [1] came out at 0%. In addition, in data set [2], the CC50 at 5 days was found to be 9460 nM.

With `NC(=O)c1cc(-c2cccnc2[C@H](Cc2cc(F)cc(F)c2)NC(=O)Cc2c[nH]c3ccc(C(F)(F)F)cc23)ccc1F` [Example 54G, (S)-5-(2-(2-(3,5-difluorophenyl)-1-(2-(5-(trifluoromethyl)-1H-indol-3-yl)acetamido)ethyl)pyridin-3-yl)-2-fluorobenzamide], the inhibition at 2 µM in data set [1] is 111%. Also, in data set [2], the midpoint of cytotoxicity, the CC50 at 5 days, lay at 10300 nM.

In the case of `CC1(C)CC(=O)c2c(C(F)(F)F)nn(CC(=O)N[C@@H](Cc3cc(F)cc(F)c3)c3ncccc3-c3ccc(F)c(C(N)=O)c3)c2C1` [Example 369, (S)-5-(2-(2-(3,5-difluorophenyl)-1-(2-(6,6-dimethyl-4-oxo-3-(trifluoromethyl)-4,5,6,7-tetrahydro-1H-indazol-1-yl)acetamido)ethyl)pyridin-3-yl)-2-fluorobenzamide], the inhibition at 2 µM in data set [1] was found to be 5%. Further, in data set [2], the half-maximal cytotoxic concentration (CC50) at 5 days was greater than 53000 nM.

On to `O=C(Cc1c[nH]c2ccc(=O)[nH]c12)N[C@@H](Cc1cc(F)cc(F)c1)c1ncncc1-c1ccc(Cl)cc1` [Example 331B, (S)—N-(1-(5-(4-chlorophenyl)pyrimidin-4-yl)-2-(3,5-difluorophenyl)ethyl)-2-(5-oxo-4,5-dihydro-1H-pyrrolo[3,2-b]pyridin-3-yl)acetamide], for which, in data set [1], the inhibition at 2 µM turned out to be 99%. In data set [2], this molecule came in with a CC50 at 5 days of 43100 nM.

By inhibition is commonly meant the change of the read-out against control, counted positive when it falls. In general, CC50 refers to the concentration giving 50% cytotoxicity. In general, % inhibition refers to the drop in the measured response relative to a control, in per cent. A higher % inhibition goes with strong suppression.
